Measurements as given in patent US20250049078A1, “ECO-FRIENDLY ADDITIVES FOR HAY AND SILAGE INOCULANTS MINIMIZING GREENHOUSE GAS EMISSIONS” (Kansas State University Research Foundation, priority 2021, published 2025).

Assays:
[1] = tested on: N2O production from corn, alfalfa, and sorghum silages (denitrifiers); test: N2O production from laboratory mini silos (simulated silage) with different treatments, fourth part of the study; details: for reduction of N2O production: inoculant + additive 0.1% (w/w), corn, alfalfa, sorghum silages, FIG. 4A, three replicates
Protocol: GHG production from simulated silage. Laboratory experiments were performed to estimate the GHG emission potentials from silage conservation (i.e. anaerobic conservation). In a first part of the study, N2O production from forage silos was studied. The forages used were corn, alfalfa, and sorghum. The mini silos consisted of 1 L glass jars connected to a 1-L Tedlar bag. The forage was chopped into 2-3 cm pieces with a laboratory chopper and ensiled in laboratory mini silos at a bulk density of 700 kg/m^3 (700 grams per silo). The experiments were performed in an incubator at 30° C. in the dark, and the produced gas volume and composition were measured periodically for 30 days.
(§1) The treatments compared in this research consisted of (1) no treatment, (2) commercial silage inoculant (Pioneer® inoculant), (3) inoculant+chlorate (0.1%, w/w), and (4) inoculant+acetate (0.1%, w/w). Three replicates for each treatment were performed.
In the fourth part of the study, three replicates for each treatment were added to forage silos prepared as described in paragraph [0052].

[2] = tested on: N2O production from simulated silage (denitrifiers); test: N2O production from alfalfa mini silos (simulated silage) with different treatments, fifth part of the study; details: for effect on N2O production: amendment 0.1% (w/w), P<0.001
Protocol: In a second part of the study, N2O and CH4 production from forage silos were studied. The forage used was second cut alfalfa (HVX MegaTron) harvested at the early flower stage. The mini silos consisted of 1 L glass jars connected to a 1-L Tedlar bag. The forage was chopped into 2-3 cm pieces with a laboratory chopper and ensiled in laboratory mini silos at a bulk density of 700 kg/m^3 (700 grams per silo). The experiments were performed in an incubator at 30° C. in the dark, and the produced gas volume and composition were measured periodically for 35 days.
as §1
In the fifth part of the study, three replicates for each treatment were added to forage silos prepared as described in paragraph [0054].

Row | Structure (SMILES) | reduction of N2O production [1] | reduction of total amount of N2O ([2]; acetate as a sodium salt, 1 g per kg-forage, preliminary study) [%] | effect on N2O production ([2]; preliminary study) | reduction of N2O production ([2]; inoculant + 0.1% (w/w) acetate, alfalfa silage, P<0.01, FIG. 4C) [%] | reduction of N2O ([1]; lower concentrations up to 0.01% (w/w), alfalfa silage, FIG. 4B) | reduction of N2O production (fold) ([2]; inoculant + 0.1% (w/w) chlorate, alfalfa silage, FIG. 4C)
1 | CC(=O)O [acetate] | up to 25% | 25 | significantly repressed | 25 | – | –
2 | [O-][Cl+2]([O-])O [chlorate] | up to 99% | – | significantly repressed | – | higher than 90% | more than ten times
